In PubChem BioAssay (NCI):
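Where inhibition never reached the appropriate level, the endpoint shown equals the highest concentration tested. Otherwise, values were interpolated linearly from a five-concentration, 48-hour dose response in 96-well plates. The concentration for 50% growth inhibition is given as GI50. TGI: concentration producing complete growth inhibition.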

How the values were obtained:
Test in all cases: NCI tumour cell line growth inhibition, 48 h
SNB-75 CNS = tested on: SNB-75 CNS
SF-295 CNS = tested on: SF-295 CNS
HL-60(TB) leukemia = tested on: HL-60(TB) leukemia
CCRF-CEM leukemia = tested on: CCRF-CEM leukemia
IGROV1 ovarian = tested on: IGROV1 ovarian
NCI-H522 lung = tested on: NCI-H522 lung
OVCAR-8 ovarian = tested on: OVCAR-8 ovarian
SF-268 CNS = tested on: SF-268 CNS
HCC-2998 colon = tested on: HCC-2998 colon
OVCAR-3 ovarian = tested on: OVCAR-3 ovarian
MDA-MB-231 breast = tested on: MDA-MB-231 breast

| SMILES | GI50 (SNB-75 CNS) [µM] | TGI (SNB-75 CNS) [µM] | GI50 (SF-295 CNS) [µM] | TGI (SF-295 CNS) [µM] | GI50 (HL-60(TB) leukemia) [µM] | TGI (HL-60(TB) leukemia) [µM] | GI50 (CCRF-CEM leukemia) [µM] | TGI (CCRF-CEM leukemia) [µM] | GI50 (IGROV1 ovarian) [µM] | TGI (IGROV1 ovarian) [µM] | GI50 (NCI-H522 lung) [µM] | TGI (NCI-H522 lung) [µM] | GI50 (OVCAR-8 ovarian) [µM] | TGI (OVCAR-8 ovarian) [µM] | GI50 (SF-268 CNS) [µM] | TGI (SF-268 CNS) [µM] | TGI (HCC-2998 colon) [µM] | TGI (OVCAR-3 ovarian) [µM] | TGI (MDA-MB-231 breast) [µM] |
| --- | --- | --- | --- | --- | --- | --- | --- | --- | --- | --- | --- | --- | --- | --- | --- | --- | --- | --- | --- |
| Clc1cc(Cl)cc(N2N=C(c3cccc(Nc4ccncc4)c3)CC2c2ccccc2)c1 (configuration not stated) | 1.45 | 5.38 | 1.65 | 3.08 | 1.9 | 5.2 | 2.92 | > 100 | 1.54 | 3.04 | 1.79 | 3.6 | 2.07 | 4.56 | 1.99 | 4.63 | – | – | – |
| COc1ccc2c(OC)c3ccoc3nc2c1O | – | > 100 | – | > 100 | – | – | – | > 100 | – | > 100 | – | > 100 | – | > 100 | – | > 100 | > 100 | > 100 | – |
| CCOP(=O)(CS(C)=O)O[C@@H]1C[C@H](C)CC[C@H]1C(C)C (some centres not stated) | – | > 27.5 | – | 18.5 | – | > 36.4 | – | 11.5 | – | 10.3 | – | 6.19 | – | 17.4 | – | 21.3 | – | 15.7 | 12.8 |
| O=C(Nc1ccc(C(F)(F)F)cc1[N+](=O)[O-])C(=O)C(C(=O)c1ccc2ccccc2c1)C1OC(=O)c2ccccc21 (configuration not stated) | – | 23 | – | 24.8 | – | 39.6 | – | 35.5 | – | > 66.3 | – | 16.4 | – | 19.8 | – | 52 | 18.3 | > 51 | – |
| COc1ccc(CCN2CCC(C#N)(c3ccc(OC)c(OC)c3)CC2)cc1OC | – | > 100 | – | > 100 | – | > 100 | – | > 100 | – | > 100 | – | > 100 | – | > 100 | – | > 100 | > 100 | > 100 | – |
| COc1cc(C2c3cccc4cccc(c34)C3CCC(=O)N32)cc(O)c1O (configuration not stated) | – | > 50 | – | > 50 | – | > 50 | – | 31.4 | – | > 50 | – | – | – | > 50 | – | – | – | > 50 | – |
| O=C1/C(=C/c2cccc([N+](=O)[O-])c2)COc2ccccc21 | – | > 61.5 | – | > 94.5 | – | 5.59 | – | – | – | > 19.9 | – | 3.1 | – | 9.19 | – | > 80.3 | > 23.4 | 13.2 | – |
| COc1ccc2c(c1)c(Cc1c(C)n(C)c3ccc(OC)cc13)c(C)n2C | – | > 100 | – | > 100 | – | > 100 | – | > 100 | – | > 100 | – | > 100 | – | > 100 | – | > 100 | – | > 100 | – |
| Nc1ccc(N=Nc2ccc(/C=C/c3ccc(N=Nc4ccc(N)c5ccc(S(=O)(=O)O)cc45)cc3S(=O)(=O)O)c(S(=O)(=O)O)c2)c2cc(S(=O)(=O)O)ccc12 | – | > 100 | – | > 100 | – | > 100 | – | > 100 | – | > 100 | – | > 100 | – | > 100 | – | > 100 | > 100 | > 100 | – |
| COc1ccc(/C=C/C(=O)NCC(NC(=O)/C=C/c2ccc(OC)c(OC)c2)C(=O)O)cc1OC (configuration not stated) | – | > 100 | – | > 100 | – | – | – | > 100 | – | – | – | > 100 | – | > 100 | – | > 100 | > 100 | > 100 | > 100 |
| c1ccc(C2=NN(c3ccccc3)C3(S2)SC(c2ccccc2)(c2ccccc2)c2ccccc23)cc1 (configuration not stated) | – | > 100 | – | > 100 | – | > 100 | – | > 100 | – | > 100 | – | > 100 | – | > 100 | – | > 100 | > 100 | > 100 | – |
| COc1ccc(NC=O)c(C(O)CCNC(C)=O)c1 (configuration not stated) | – | > 100 | – | > 100 | – | > 100 | – | > 100 | – | > 100 | – | > 100 | – | > 100 | – | > 100 | – | > 100 | > 100 |
| Cc1ccc(S(=O)(=O)N/N=C2\C(=O)C3CC2C(Cl)C3Cl)cc1 (configuration not stated) | – | > 100 | – | > 100 | – | > 100 | – | > 100 | – | > 100 | – | – | – | > 100 | – | > 100 | > 100 | > 100 | – |
| CN(C(=O)C1=CCCCCC1)c1ccccc1I | – | 79.7 | – | > 100 | – | > 100 | – | > 100 | – | > 100 | – | – | – | > 100 | – | 95.9 | > 100 | > 100 | > 100 |
| COc1c(O)cc(/C=C/c2cc(O)cc3c2[C@@]2(C(=O)O3)c3c(O)cc(O)cc3OC2c2cccc(O)c2)cc1O (some centres not stated) | – | – | – | – | – | 69.1 | – | > 100 | – | > 100 | – | > 100 | – | > 100 | – | > 100 | – | > 100 | > 100 |
| N#CCCc1nc2ccc(Br)cc2c(=O)n1-c1ccc(O)c([N+](=O)[O-])c1 | – | 83.2 | – | 47.8 | – | 41.9 | – | 71.7 | – | 47.7 | – | 31.8 | – | > 100 | – | 63.1 | 37.4 | 41.4 | – |
| NC(=S)N/N=C/c1cc(CN2CCOCC2)c(N)cn1 | – | 89.4 | – | > 100 | – | > 100 | – | > 100 | – | > 100 | – | – | – | > 100 | – | > 100 | – | > 100 | > 100 |
| O=S(=O)(CC1=NC2C=CC=CC2N=C1)NCc1ccccc1 (configuration not stated) | – | > 100 | – | > 100 | – | > 100 | – | > 100 | – | > 100 | – | > 100 | – | > 100 | – | > 100 | > 100 | > 100 | – |
| CC1CCCc2c(-c3ccc(Cl)cc3)nc(N)c(C#N)c21 (configuration not stated) | – | 50.6 | – | – | – | > 100 | – | > 100 | – | 66.1 | – | – | – | 91.6 | – | > 100 | – | > 100 | > 100 |
| Oc1cn(-c2ccc(Cl)cc2)nc1-c1nnc(Nc2ccccc2)o1 | – | 45.2 | – | 39.2 | – | – | – | – | – | 32.4 | – | 35.4 | – | 43.6 | – | 33.7 | – | > 100 | 27.4 |
| C/C(C=O)=C1\C(O)C[C@]1(C)C1CC(C)(C)CC1O (some centres not stated) | – | – | – | > 100 | – | > 100 | – | > 100 | – | – | – | > 100 | – | > 100 | – | > 100 | > 100 | > 100 | – |
| CSC1=N/C(=C\c2cccs2)C(=O)N1CN1CCCCC1 | – | > 100 | – | > 100 | – | – | – | > 100 | – | > 100 | – | – | – | > 100 | – | > 100 | – | > 100 | > 100 |
